Data from US20040058999A1, “Compounds with anti-hiv activity” (priority 2002, published 2004).
Read-outs that look alike come from different tables or passages of the source.

Tests used:
[1] = tested on: HIV virus; format: cell-based; settings: for Neutralization Index: 200 μg/ml, 37°-1 h; for Viral titre after incubation at 37°-1 h with 200 μg/ml of drug: mean of 3 experiments
[2] = tested on: MHV-3 hepatitis virus; settings: in words; cited from earlier work
[3] = tested on: HIV virus; assay: Viral growth curve in infected lymphoblasts cultures in the presence of the tested compounds; format: cell-based
Procedure: (§1) Lymphoblasts cultures in stationary tubes (inoculum 200,000 cells/ml) at the 4th day from implant were used. A lactalbumin medium enriched with 20% decomplemented calf serum medium was used as culture medium (TC) and, as maintaining medium (TM), after infection of the cultures, a 199 supplemented with 1% bovine crystallized albumin and 2% calf serum was used. All media were added with penicillin (100 U.I/ml) and streptomycin (100 μg/ml). Viral dilutions were carried out with 199 only.
Xenalamine (p-α-ethoxy-p-phenyl-phenacylaminobenzoic acid), xenalic acid (p-(4-biphenyl-glyoxylidene)-amino-benzoic acid) at a 12.5 μg dose; xenaldial (4,4′-bis-diphenylglyoxal hydrate) at a 25 μg dose.
The following procedure was used to evaluate the viral growth curve in the presence of the tested compounds: cultures were infected with 1 ml of viral fluid containing a cytopathogenic dose to obtain an about 1:1 LD50/cell ratio. 1 Hour after the infection at +36° C. and repeated washings with Hanks balanced saline solution, the viral fluid was replaced with TM for the control groups and with TM+drug for the tested cultures.
At time intervals, aliquots from three cultures were taken, washed with Hanks solution, then added with 1 ml of TM and frozen at −30° C.
At the end of the experiment, the culture fluids were thawed and refrozen twice, pooling each aliquot, then titred simultaneously with the corresponding fluids separated before freezing.

[4] = tested on: various Arborvirus, Poxvirus, Nitavirus and Myxovirus strains; settings: in words; cited from earlier work
[5] = tested on: A-PR8 Influenza virus; settings: in words; cited from earlier work
[6] = tested on: HTLV IIIB; assay: HTLV IIIB-inhibitory activity on cultures of lymphocytes, % virus inhibition by PCR; format: cell-based
Procedure: HTLV IIIB-inhibitory activity of Xenaldial was tested on cultures of lymphocytes. The % virus inhibition was determined by means of PCR, according to the following procedure:
DNA was extracted from 5×10^4 lymphocytes using 400 μl lysate and incubating at 56° C./60′ and at 92° C./15′. Afterwards the mixture was cooled at room temperature and kept at 4° C.
The oligonucleotide SK19 (41 bases—corresponding to the internal sequence of the amplified pro-viral DNA) was synthesised, dissolved in water at a final concentration of 20 μm and 5′-labelled with polynucleotide kinase and ^32P-ATP.
Reagent preparation: Nucleotides: 125 μl of each nucleotide 10 mM were diluted to 1 ml with H2O (final concentration 1.25 mM); buffer 10×: KCl 2M—250 μl, TrisCl 1M pH8.3—100 μl, MgCl2 1M—20 μl, gelatine—10 mg, diluted to 1 ml with H2O;
Oligonucleotide pair: oligonucleotides SK38 and 39 were synthesised, purified and dissolved in a concentration of 200-300 μM.
Reaction: mixing buffer 10×, nucleotides (1.25 mM), oligonucleotide primer SK38 and SK39 15 μM, lysate, Taq polymerase 5 U/μl; denaturation 90° C./60′, annealing 55° C./30′, polymerisation 72° C./30′; repeat the cycle 30 times.

[7] = tested on: Lymphoblasts cultures; assay: Maximal dose tolerated by the cultures; format: cell-based; settings: established in previous experiments
Procedure: as §1
The dose used for each drug is the maximal dose tolerated by the cultures, established in previous experiments.

**Q.** For `O.O.O=CC(=O)c1ccc(-c2ccc(C(=O)C=O)cc2)cc1` [xenaldial, 4-4′-bis-biphenylglyoxal dihydrate], which “reduction of the pathogenic activity of the virus upon exposure (% of the logarithmic values compared with controls)” value ([1]; high viral titre) is on record?
**A.** 8.3%

**Q.** And the “Neutralization Index” value ([1]; high viral titre (starting stock 6.5))?
**A.** 0.5

**Q.** And the “Viral titre after incubation at 37°-1 h with 200 μg/ml of drug” value ([1]; high viral titre: starting stock titre 6.5, control after incubation 6.2)?
**A.** 6.0

**Q.** What about the “virucidal activity (on extracellular viral particles)” value ([1]; in words) of the same molecule?
**A.** marked virucidal activity

**Q.** What about the “reduction of the pathogenic activity of the virus upon exposure (% of the logarithmic values compared with controls)” value ([1]; low viral titre) of the same molecule?
**A.** 42.8%

**Q.** What about the “Neutralization Index” value ([1]; low viral titre (starting stock 4.5)) of the same molecule?
**A.** 1.5

**Q.** And the “Viral titre after incubation at 37°-1 h with 200 μg/ml of drug” value ([1]; low viral titre: starting stock titre 4.5, control after incubation 3.5)?
**A.** 2.0

**Q.** What about the antiviral activity [2] of the same molecule?
**A.** active

**Q.** And the “delay in the appearance of the virus in fluids compared with controls” value ([3]; drug added 1 h after infection, xenalamine 12.5 μg/ml, xenaldial 25 μg/ml)?
**A.** 24 h

**Q.** What about the “reduction of the intra- and extracellular virus amount compared with controls, time up to which observed” value ([3]; xenaldial 25 μg/ml added 1 h and again 48 hours after the infection) of the same molecule?
**A.** up to 120 hours

**Q.** What about the antiviral activity [4] of the same molecule?
**A.** active

**Q.** What about the antiviral activity [5] of the same molecule?
**A.** active

**Q.** And the Inhibition % ([6]; 0.001 μM)?
**A.** 44%

**Q.** What about the Inhibition % ([6]; 0.01 μM) of the same molecule?
**A.** 30%

**Q.** And the Inhibition % ([6]; 0.1 μM)?
**A.** 12%

**Q.** What about the Inhibition % ([6]; 1 μM) of the same molecule?
**A.** 16%

**Q.** And the Inhibition % ([6]; 5 μM)?
**A.** 42%

**Q.** What about the Inhibition % ([6]; 20 μM) of the same molecule?
**A.** 26%

**Q.** And the Inhibition % ([6]; 60 μM)?
**A.** 59%

**Q.** What about the Inhibition % ([6]; 100 μM) of the same molecule?
**A.** 77%

**Q.** What about the “maximal dose tolerated by the cultures” value [7] of the same molecule?
**A.** 25 µg

**Q.** What does the source list for `O=C(O)c1ccc(N=CC(=O)c2ccc(-c3ccccc3)cc2)cc1` [xenalic acid, p-(4-biphenyl-glyoxylidene)-amino-benzoic acid]?
**A.** virucidal activity (on extracellular viral particles) [1]: marked virucidal activity; inhibitory effect on intracellular viral replication ([3]; same experimental conditions, compared with xenaldial): lower than that of xenaldial; maximal dose tolerated by the cultures [7]: 12.5 µg
